ChEMBL document CHEMBL4840352 (J Med Chem, 2021)
pIC50: −log10 of the molar value. Calls of active or inactive are those of the source. The calls are words filed in the database; no cut-off is given here.

Key:
[1] = test system: Receptor-type tyrosine-protein kinase FLT3 (Homo sapiens), P36888 [UNDEFINED MUTATION]; assay: Induction of FLT3-ITD degradation in human MV4-11 cells at 20 nM pretreated with MG132 for 2 hrs followed compound addition for 6 hrs by Western blot analysis; assay type: cell-based
MV4-11 [2] = assay: Reduction in intracellular ROS level in human MV4-11 cells measured after 12 hrs by DCFH-DA probe based flow cytometry; assay type: functional, cell-based; conditions: dose 25-200 nM
[3] = target: Serine/threonine-protein kinase Chk2 (Homo sapiens) (UniProt O96017); assay: Inhibition of CHK2 (unknown origin) at 1000 nM relative to control
[4] = target: Mast/stem cell growth factor receptor Kit (Homo sapiens) (UniProt P10721); assay: Inhibition of KIT in human MV4-11 cells assessed as reduction in STAT3 phosphorylation at 5 to 25 nM after 24 hrs by Western blot analysis; assay type: cell-based; conditions: dose 5-25 nM
MOLM-13 [5] = assay: Induction of apoptosis in human MOLM-13 cells assessed as downregulation of Mcl-1 level at 15 nM measured upto 12 hrs by Western blot analysis; assay type: functional, cell-based; conditions: time hrs <=12
MV4-11 [6] = assay: Induction of apoptosis in human MV4-11 cells assessed as downregulation of Mcl-1 level at 15 nM measured upto 12 hrs by Western blot analysis; assay type: functional, cell-based; conditions: time hrs <=12
MV4-11 [7] = assay: Induction of apoptosis in human MV4-11 cells after 48 hrs by Annexin-V/PI staining based flow cytometry; assay type: functional, cell-based; conditions: dose 1.25-10 nM
[8] = target: Serine/threonine-protein kinase 4 (Homo sapiens) (UniProt Q13043); assay: Inhibition of MST1 (unknown origin) at 1000 nM relative to control
[9] = target: Receptor-type tyrosine-protein kinase FLT3 (Homo sapiens) (UniProt P36888); assay: Inhibition of FLT3 in human MOLM-13 cells assessed as reduction in AKT phosphorylation at 15 nM by Western blot analysis; assay type: cell-based; conditions: time 0-12 hrs, TDE = time-dependent effect
[10] = target: Aurora kinase A (Homo sapiens) (UniProt O14965); assay: Inhibition of AURORA-A (unknown origin) at 1000 nM relative to control
[11] = target: ALK tyrosine kinase receptor (Homo sapiens) (UniProt Q9UM73); assay: Inhibition of ALK (unknown origin) at 1000 nM relative to control
[12] = target: Mast/stem cell growth factor receptor Kit (Homo sapiens) (UniProt P10721); assay: Induction of KIT degradation in human MOLM-13 cells at 0 to 25 nM after 24 hrs by Western blot analysis; assay type: cell-based; conditions: dose 0-25 nM
[13] = target: Receptor-type tyrosine-protein kinase FLT3 (Homo sapiens) (UniProt P36888); assay: Inhibition of FLT3 in human MOLM-13 cells assessed as reduction in STAT5 phosphorylation at 15 nM by Western blot analysis; assay type: cell-based; conditions: time 0-12 hrs, TDE = time-dependent effect
[14] = test system: Receptor-type tyrosine-protein kinase FLT3 (Homo sapiens), P36888 [UNDEFINED MUTATION]; conditions: dose 1000.0 nM
Description: Inhibition of FLT3 ITD mutant (unknown origin) at 1000 nM relative to control

MV4-11 [15] = assay: Antiproliferative activity against human MV4-11 cells incubated for 48 hrs by CCK-8 assay; assay type: functional, cell-based; conditions: MV4-11, 48 h
[16] = target: Platelet-derived growth factor receptor beta (Homo sapiens) (UniProt P09619); assay: Induction of PDGFR degradation in human MV4-11 cells at 0 to 25 nM after 24 hrs by Western blot analysis; assay type: cell-based; conditions: dose 0-25 nM
[17] = test system: Receptor-type tyrosine-protein kinase FLT3 (Homo sapiens), P36888 [UNDEFINED MUTATION]; assay: Induction of FLT3-ITD degradation in human MV4-11 cells after 24 hrs by Western blot analysis; assay type: cell-based
MOLM-13 [18] = assay: Induction of apoptosis in human MOLM-13 cells after 48 hrs by Annexin-V/PI staining based flow cytometry; assay type: functional, cell-based; conditions: dose 1.25-10 nM
[19] = target: CDK7/Cyclin H/MNAT1 (Homo sapiens) (UniProt P51946+P50613+P51948); assay: Inhibition of CDK7/cyclinH/MAT1 (unknown origin) at 1000 nM relative to control; assay type: protein-complex assay
[20] = target: Mast/stem cell growth factor receptor Kit (Homo sapiens) (UniProt P10721); assay: Inhibition of KIT in human MV4-11 cells assessed as reduction in PI3K phosphorylation at 5 to 25 nM after 24 hrs by Western blot analysis; assay type: cell-based; conditions: dose 5-25 nM
[21] = target: RAC-alpha serine/threonine-protein kinase (Homo sapiens) (UniProt P31749); assay: Inhibition of AKT1 (unknown origin) at 1000 nM relative to control
[22] = target: Mitogen-activated protein kinase 8 (Homo sapiens) (UniProt P45983); assay: Inhibition of JNK1 (unknown origin) at 1000 nM relative to control
MV4-11 [23] = assay: Antitumor activity against human MV4-11 cells xenografted in NOD/SCID mouse assessed as reduction in CD45-positive cells in bone marrow at 3 mg/kg/day, iv administered for 12 days by flow cytometry analysis (reference value: 32.23 %); assay type: functional; parameters: scale not given: the % may be the effect or the level left; conditions: time 12 day
[24] = target: Mitogen-activated protein kinase kinase kinase 14 (Homo sapiens) (UniProt Q99558); assay: Inhibition of NIK (unknown origin) at 1000 nM relative to control
[25] = target: Proto-oncogene tyrosine-protein kinase Src (Homo sapiens) (UniProt P12931); assay: Inhibition of SRC (unknown origin) at 1000 nM relative to control
[26] = target: Rho-associated protein kinase 1 (Homo sapiens) (UniProt Q13464); assay: Inhibition of ROCK1 (unknown origin) at 1000 nM relative to control
[27] = target: Platelet-derived growth factor receptor beta (Homo sapiens) (UniProt P09619); assay: Induction of PDGFR degradation in human MOLM-13 cells at 0 to 25 nM after 24 hrs by Western blot analysis; assay type: cell-based; conditions: dose 0-25 nM
MV4-11 [28] = assay: Induction of apoptosis in human MV4-11 cells assessed as upregulation of cleaved caspase-3 level at 15 nM by Western blot analysis; assay type: functional, cell-based; conditions: time 0-12 hrs, TDE = time-dependent effect
[29] = target: Tyrosine-protein kinase JAK3 (Homo sapiens) (UniProt P52333); assay: Inhibition of JAK3 (unknown origin) at 1000 nM relative to control
MOLM-13 [30] = assay: Reduction in intracellular ROS level in human MOLM-13 cells measured after 12 hrs by DCFH-DA probe based flow cytometry; assay type: functional, cell-based; conditions: dose 25-200 nM
[31] = test system: Receptor-type tyrosine-protein kinase FLT3 (Homo sapiens), P36888 [UNDEFINED MUTATION]; assay: Induction of FLT3-ITD degradation in human MOLM-13 cells after 24 hrs by Western blot analysis; assay type: cell-based
[32] = target: Fibroblast growth factor receptor 2 (Homo sapiens) (UniProt P21802); conditions: dose 1000.0 nM
Description: Inhibition of FGFR2 (unknown origin) at 1000 nM relative to control

[33] = target: Proto-oncogene tyrosine-protein kinase receptor Ret (Homo sapiens) (UniProt P07949); conditions: dose 1000.0 nM
Description: Inhibition of RET (unknown origin) at 1000 nM relative to control

[34] = target: Discoidin domain-containing receptor 2 (Homo sapiens) (UniProt Q16832); assay: Inhibition of DDR2 (unknown origin) at 1000 nM relative to control
[35] = target: Receptor-type tyrosine-protein kinase FLT3 (Homo sapiens) (UniProt P36888); assay: Inhibition of FLT3 in human MV4-11 cells assessed as reduction in AKT phosphorylation at 15 nM by Western blot analysis; assay type: cell-based; conditions: time 0-12 hrs, TDE = time-dependent effect
[36] = target: Tyrosine-protein kinase ITK/TSK (Homo sapiens) (UniProt Q08881); conditions: dose 1000.0 nM
Description: Inhibition of ITK (unknown origin) at 1000 nM relative to control

[37] = test system: Receptor-type tyrosine-protein kinase FLT3 (Homo sapiens), P36888 [UNDEFINED MUTATION]; assay: Induction of FLT3-ITD degradation in human MV4-11 cells at 20 nM pretreated with dov for 2 hrs followed compound addition for 6 hrs by Western blot analysis; assay type: cell-based
[38] = test system: Receptor-type tyrosine-protein kinase FLT3 (Homo sapiens), P36888 [UNDEFINED MUTATION]; assay: Induction of FLT3-ITD degradation in human MV4-11 cells assessed as accumulation of ubiquitinated FLT3-ITD at 15 nM preincubated for 4 hrs followed by MG132 addition for 2 hrs by immunoprecipitation assay; assay type: cell-based; conditions: time 6.0 hrs

Sequence of Mast/stem cell growth factor receptor Kit (Homo sapiens) (P10721 whole entry): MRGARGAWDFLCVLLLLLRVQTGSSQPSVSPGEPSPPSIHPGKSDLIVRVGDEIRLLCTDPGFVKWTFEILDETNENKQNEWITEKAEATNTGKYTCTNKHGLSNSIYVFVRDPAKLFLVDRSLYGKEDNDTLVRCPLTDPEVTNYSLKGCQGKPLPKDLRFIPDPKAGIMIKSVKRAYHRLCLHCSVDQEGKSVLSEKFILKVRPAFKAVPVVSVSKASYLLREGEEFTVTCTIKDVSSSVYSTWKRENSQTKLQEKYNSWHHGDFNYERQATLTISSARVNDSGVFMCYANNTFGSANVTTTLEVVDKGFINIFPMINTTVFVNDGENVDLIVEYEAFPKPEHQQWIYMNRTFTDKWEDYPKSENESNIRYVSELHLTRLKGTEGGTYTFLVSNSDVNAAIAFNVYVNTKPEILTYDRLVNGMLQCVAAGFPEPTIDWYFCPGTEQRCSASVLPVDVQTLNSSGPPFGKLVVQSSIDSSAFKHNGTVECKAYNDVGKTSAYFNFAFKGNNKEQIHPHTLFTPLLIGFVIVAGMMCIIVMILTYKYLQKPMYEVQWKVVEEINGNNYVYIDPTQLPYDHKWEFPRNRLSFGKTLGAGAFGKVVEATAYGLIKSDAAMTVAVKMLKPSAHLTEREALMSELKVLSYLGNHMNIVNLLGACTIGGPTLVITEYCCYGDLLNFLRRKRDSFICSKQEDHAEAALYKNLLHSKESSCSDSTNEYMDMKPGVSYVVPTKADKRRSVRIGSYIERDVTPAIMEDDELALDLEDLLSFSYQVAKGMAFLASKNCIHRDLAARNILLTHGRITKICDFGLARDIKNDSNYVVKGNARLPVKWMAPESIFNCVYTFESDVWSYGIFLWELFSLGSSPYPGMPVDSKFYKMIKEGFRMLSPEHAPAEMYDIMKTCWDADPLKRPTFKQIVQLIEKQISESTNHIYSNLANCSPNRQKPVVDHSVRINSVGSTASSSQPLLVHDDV
Sequence of Receptor-type tyrosine-protein kinase FLT3 (Homo sapiens) (P36888 whole entry): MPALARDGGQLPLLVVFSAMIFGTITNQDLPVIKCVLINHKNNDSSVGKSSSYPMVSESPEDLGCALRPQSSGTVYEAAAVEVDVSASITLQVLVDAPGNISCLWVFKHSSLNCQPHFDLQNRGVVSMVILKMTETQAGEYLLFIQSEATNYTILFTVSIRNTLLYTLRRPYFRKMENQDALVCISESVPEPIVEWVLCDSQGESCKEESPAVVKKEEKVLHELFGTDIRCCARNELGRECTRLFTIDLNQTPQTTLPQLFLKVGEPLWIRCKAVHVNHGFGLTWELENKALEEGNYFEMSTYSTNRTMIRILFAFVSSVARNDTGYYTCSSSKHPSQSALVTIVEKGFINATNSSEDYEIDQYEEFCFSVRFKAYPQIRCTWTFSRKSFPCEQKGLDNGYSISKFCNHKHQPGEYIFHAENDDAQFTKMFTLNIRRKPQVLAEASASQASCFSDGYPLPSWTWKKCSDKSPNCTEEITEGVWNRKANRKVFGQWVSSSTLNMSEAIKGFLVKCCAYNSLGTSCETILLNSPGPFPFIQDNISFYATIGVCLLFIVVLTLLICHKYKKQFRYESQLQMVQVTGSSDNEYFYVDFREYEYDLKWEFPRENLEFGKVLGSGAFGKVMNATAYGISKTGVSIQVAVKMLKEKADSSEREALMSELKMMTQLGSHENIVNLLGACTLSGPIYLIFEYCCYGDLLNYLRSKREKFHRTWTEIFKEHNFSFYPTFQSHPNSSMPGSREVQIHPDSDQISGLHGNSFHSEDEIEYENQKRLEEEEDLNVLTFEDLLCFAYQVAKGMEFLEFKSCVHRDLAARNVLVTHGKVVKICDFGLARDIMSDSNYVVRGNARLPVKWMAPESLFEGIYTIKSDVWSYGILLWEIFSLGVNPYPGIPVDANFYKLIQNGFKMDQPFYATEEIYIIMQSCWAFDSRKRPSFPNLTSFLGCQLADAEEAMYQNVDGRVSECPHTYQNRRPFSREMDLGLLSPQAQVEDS
Sequence of Receptor-type tyrosine-protein kinase FLT3 (Homo sapiens), P36888 [UNDEFINED MUTATION] (P36888 whole entry, looked up, stated change not applied): as the sequence (P36888 whole entry) above
Sequence of Platelet-derived growth factor receptor beta (Homo sapiens) (P09619 whole entry): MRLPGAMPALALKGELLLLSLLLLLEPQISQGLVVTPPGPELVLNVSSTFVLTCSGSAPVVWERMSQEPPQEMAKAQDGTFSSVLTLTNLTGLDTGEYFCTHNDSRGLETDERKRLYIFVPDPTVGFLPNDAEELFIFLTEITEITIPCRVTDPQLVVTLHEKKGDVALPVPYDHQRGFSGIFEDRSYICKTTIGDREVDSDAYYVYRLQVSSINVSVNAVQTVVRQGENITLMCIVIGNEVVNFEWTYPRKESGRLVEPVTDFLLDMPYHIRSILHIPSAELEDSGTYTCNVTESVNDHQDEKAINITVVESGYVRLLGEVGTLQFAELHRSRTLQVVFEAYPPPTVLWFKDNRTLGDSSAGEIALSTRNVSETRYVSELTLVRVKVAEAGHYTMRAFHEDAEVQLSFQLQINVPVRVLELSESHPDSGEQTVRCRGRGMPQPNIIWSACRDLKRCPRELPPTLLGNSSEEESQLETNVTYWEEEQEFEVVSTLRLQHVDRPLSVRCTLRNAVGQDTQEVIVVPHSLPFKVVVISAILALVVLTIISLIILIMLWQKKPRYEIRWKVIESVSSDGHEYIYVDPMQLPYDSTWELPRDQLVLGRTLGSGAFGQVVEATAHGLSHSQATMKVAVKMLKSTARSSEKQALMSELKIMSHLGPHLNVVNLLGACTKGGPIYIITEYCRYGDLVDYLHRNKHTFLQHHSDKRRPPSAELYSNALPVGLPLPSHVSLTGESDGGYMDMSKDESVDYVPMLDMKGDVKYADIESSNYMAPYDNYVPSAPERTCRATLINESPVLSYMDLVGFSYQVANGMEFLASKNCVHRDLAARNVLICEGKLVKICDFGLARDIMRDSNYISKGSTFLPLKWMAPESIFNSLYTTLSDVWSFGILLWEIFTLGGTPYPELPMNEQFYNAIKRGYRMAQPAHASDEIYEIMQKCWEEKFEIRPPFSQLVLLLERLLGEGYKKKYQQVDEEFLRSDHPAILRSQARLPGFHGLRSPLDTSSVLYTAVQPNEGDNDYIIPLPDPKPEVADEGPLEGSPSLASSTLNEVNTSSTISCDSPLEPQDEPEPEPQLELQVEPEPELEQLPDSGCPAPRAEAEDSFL
Sequence of Proto-oncogene tyrosine-protein kinase receptor Ret (Homo sapiens) (P07949 whole entry, the tested form may be a part): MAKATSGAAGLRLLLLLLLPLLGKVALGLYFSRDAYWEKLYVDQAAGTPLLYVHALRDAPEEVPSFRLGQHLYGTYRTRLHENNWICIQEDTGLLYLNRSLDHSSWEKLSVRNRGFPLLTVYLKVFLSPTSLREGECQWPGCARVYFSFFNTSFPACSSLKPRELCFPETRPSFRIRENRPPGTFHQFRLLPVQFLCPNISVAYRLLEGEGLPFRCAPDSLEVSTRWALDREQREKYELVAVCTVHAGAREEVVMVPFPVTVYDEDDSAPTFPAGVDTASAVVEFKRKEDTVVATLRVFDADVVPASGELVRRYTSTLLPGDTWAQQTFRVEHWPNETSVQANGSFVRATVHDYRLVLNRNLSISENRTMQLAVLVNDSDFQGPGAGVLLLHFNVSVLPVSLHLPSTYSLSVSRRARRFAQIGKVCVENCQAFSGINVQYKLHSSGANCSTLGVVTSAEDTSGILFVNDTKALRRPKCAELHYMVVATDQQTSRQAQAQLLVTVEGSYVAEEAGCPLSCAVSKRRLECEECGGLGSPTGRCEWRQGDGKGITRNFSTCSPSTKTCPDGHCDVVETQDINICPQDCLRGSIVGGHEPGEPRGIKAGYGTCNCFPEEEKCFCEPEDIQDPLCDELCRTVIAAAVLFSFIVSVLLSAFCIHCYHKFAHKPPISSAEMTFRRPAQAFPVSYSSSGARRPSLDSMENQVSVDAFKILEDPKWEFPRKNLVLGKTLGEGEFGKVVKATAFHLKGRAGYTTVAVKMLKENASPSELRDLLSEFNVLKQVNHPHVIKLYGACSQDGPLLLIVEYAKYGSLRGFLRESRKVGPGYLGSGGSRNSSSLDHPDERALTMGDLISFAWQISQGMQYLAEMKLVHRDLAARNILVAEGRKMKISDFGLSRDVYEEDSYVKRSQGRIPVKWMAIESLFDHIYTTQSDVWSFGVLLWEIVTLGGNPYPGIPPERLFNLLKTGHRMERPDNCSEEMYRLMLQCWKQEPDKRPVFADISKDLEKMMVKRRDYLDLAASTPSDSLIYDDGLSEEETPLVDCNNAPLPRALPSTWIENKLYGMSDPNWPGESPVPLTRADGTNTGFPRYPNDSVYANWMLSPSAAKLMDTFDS
Sequence of Mitogen-activated protein kinase 8 (Homo sapiens) (P45983 whole entry): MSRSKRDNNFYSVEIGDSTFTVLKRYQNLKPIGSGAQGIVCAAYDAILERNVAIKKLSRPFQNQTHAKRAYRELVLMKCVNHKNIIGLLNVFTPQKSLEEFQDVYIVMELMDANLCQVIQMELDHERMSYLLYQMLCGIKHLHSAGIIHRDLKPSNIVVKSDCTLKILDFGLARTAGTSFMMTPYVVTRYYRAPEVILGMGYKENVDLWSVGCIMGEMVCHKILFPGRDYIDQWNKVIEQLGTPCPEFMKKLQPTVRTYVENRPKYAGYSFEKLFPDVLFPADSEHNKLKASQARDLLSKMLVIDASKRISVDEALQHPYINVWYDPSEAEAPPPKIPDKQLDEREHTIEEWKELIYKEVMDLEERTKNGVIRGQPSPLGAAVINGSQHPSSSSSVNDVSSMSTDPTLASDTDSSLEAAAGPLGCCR
Sequence of Aurora kinase A (Homo sapiens) (O14965 whole entry): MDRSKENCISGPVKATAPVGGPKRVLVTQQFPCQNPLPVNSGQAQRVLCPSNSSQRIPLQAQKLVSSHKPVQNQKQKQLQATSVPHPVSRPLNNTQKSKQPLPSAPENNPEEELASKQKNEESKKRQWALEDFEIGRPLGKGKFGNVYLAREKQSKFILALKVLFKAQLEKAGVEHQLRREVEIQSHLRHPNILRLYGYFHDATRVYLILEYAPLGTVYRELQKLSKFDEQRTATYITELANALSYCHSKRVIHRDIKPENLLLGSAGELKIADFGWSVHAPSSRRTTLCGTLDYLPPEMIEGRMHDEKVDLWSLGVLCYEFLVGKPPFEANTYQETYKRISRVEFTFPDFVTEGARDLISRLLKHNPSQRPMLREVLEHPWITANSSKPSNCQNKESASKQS

## Nc1c(-c2nc3cc(N4CCN(C(=O)CCCCCNc5cccc6c5C(=O)N(C5CCC(=O)NC5=O)C6=O)CC4)ccc3[nH]2)c(=O)[nH]c2cccc(F)c12 (stereo not drawn)
[1]
  Activity: inactive
MV4-11 [2]
  Activity: Dose-Dependent Effect
[3]
  inhibition: 0%
[4]
  inhibition: Active
MOLM-13 [5]
  Activity: Active
MV4-11 [6]
  Activity: Active
MV4-11 [7]
  Activity: Dose-Dependent Effect
[8]
  inhibition: 32%
[9]
  inhibition: Tde
[10]
  inhibition: 17%
[11]
  inhibition: 25%
[12]
  Activity: Active
[13]
  inhibition: Tde
[14]
  inhibition: 98%
MV4-11 [15]
  pIC50: 8.04
[16]
  Activity: Active
[17]
  Activity: Dose-Dependent Effect
MOLM-13 [18]
  Activity: Dose-Dependent Effect
[19]
  inhibition: 0%
[20]
  inhibition: Active
[21]
  inhibition: 7%
[22]
  inhibition: -8%
MV4-11 [23]
  Activity: 5.19%
[24]
  inhibition: 0%
[25]
  inhibition: 37%
[26]
  inhibition: 4%
[27]
  Activity: Active
MV4-11 [28]
  Activity: Tde
[29]
  inhibition: 1%
MOLM-13 [30]
  Activity: Dose-Dependent Effect
[31]
  Activity: Dose-Dependent Effect
[32]
  inhibition: 34%
[33]
  inhibition: 39%
[34]
  inhibition: 17%
[35]
  inhibition: Tde
[36]
  inhibition: 42%
[37]
  Activity: inactive
[38]
  Activity: Active
